Here are results for five compounds from patent publication US10350189B2, “Method for transnasal delivery of blood-brain barrier permeation agent and therapeutic agent” (priority 2015, dated 2019).

“Also recorded” adds a separate entry of the source.

The subject of series [1] is BBB of the rat test subjects. As to the kind of experiment: BBB permeability by Evans Blue concentration in brain after intranasal topical application to the SPG. In kind it is in vivo. An excerpt:
Data are presented as mean±SEM. […] A P value of less than 0.05 was considered significant.

Series [2] deals with Male Sprague-Dawley rats. Briefly: Mean arterial pressure after intranasal application to the SPG. Format: in vivo, rat. How it is done: (§1) Male Sprague-Dawley rats (Harlan, Indianapolis, Ind.) weighing 300-350 g were allowed to acclimate for at least 4 days prior to experimentation. Rats were housed 2 per cage in a room with controlled light (6:00 a.m. to 6:00 p.m.), humidity (50±10%) and temperature (23±1° C.). Animal care and use for experimental procedures was approved by and in accordance with the guidelines of the Midwestern University Institutional Animal Care and Use Committee (IACUC).
(§2) All drugs/solutions were freshly prepared on the day of administration using sterile saline (0.9% NaCl, Hospira, Inc., Lake Forest, Ill.). Urethane (ethyl carbamate, Sigma-Aldrich, St. Louis, Mo.) was administered intraperitoneally (IP) at a dose of 1.5 g/kg. […] Evans blue (5 mL/kg) was administered intravenously (IV) via left femoral vein cannula.
(§3) Two studies were designed for this project, using a total of 42 rats.
(§4) Rats were anesthetized with urethane (1.5 g/kg, IP) and immobilized on a surgical board equipped with a controlled heating pad. Core temperature, measured via rectal probe, was maintained at 37±1° C. In order to maintain blood pO2, pCO2 and pH, and to avoid the effect of respiration on blood pressure (BP) and heart rate (HR), animals were kept on artificial respiration via an endotracheal cannula connected to a rodent ventilator (Model 683, Harvard Apparatus, Inc., Holliston, Mass.). […]

The test system of series [3] is Male Sprague-Dawley rats. As to the kind of experiment: Heart rate after intranasal application to the SPG. Format: in vivo, rat. How it is done: as §1, §2, §3, §4
For series [4], the system named is Male Sprague-Dawley rats. As to the kind of experiment: Cerebral blood flow by Laser Speckle Contrast Analysis after intranasal application to the SPG. The conditions noted are these: rivastigmine-treated (1 and 2 mg/kg) vs saline. In kind it is in vivo, rat. How it is done: as §3
Animals anesthetized with urethane were secured into a stereotactic apparatus (David Kopf Instruments, Tujunga, Calif.) and a midline incision was made on their scalp. The skull was slowly thinned using a dremel, working in 30 second periods to minimize heat caused by friction. Cerebral blood flow was measured using Laser Speckle Contrast Analysis (LASCA) technology with a PeriCam PSI HR system (Perimed, Inc., Ardmore, Pa.), captured in real time and analyzed using PIMSoft software (Perimed).
GraphPad Instat 2.00 was used to conduct a power analysis. […] Data are presented as mean±SEM. The significance of differences for mean arterial pressure, heart rate and cerebral blood flow was estimated by 2-way analysis of variance followed by Tukey's post hoc test. One-way analysis of variance followed by Tukey's post hoc test was used to estimate significance for BBB permeability. A P value of less than 0.05 was considered significant. The statistical analysis was processed with GraphPad Prism 6.05 (GraphPad, San Diego, Calif.).

The conditions of series [5]: cited from earlier work.
Where [6] appears, read: 1, 2 or 4 mg/kg to the SPG via intranasal cannula.

On to `CCN(C)C(=O)Oc1cccc([C@H](C)N(C)C)c1` [rivastigmine], for which the “BBB permeability, in words” value was “significantly higher than saline; also recorded: greatest permeabilization” in series [1] (1 mg/kg compared with saline, 2 and 4 mg/kg); “slightly increased permeability of the BBB over neostigmine” in series [1] (Study I, 2 mg/kg rivastigmine compared with 0.4 mg/kg neostigmine). The “BBB permeability, in words (Evans Blue dye in the CNS)” value in series [1] (topical administration to the SPG, overall conclusion) is listed as “increase in BBB permeability”. The mean arterial pressure entry in the series on Male Sprague-Dawley rats [2] (setting [6]) is reported as “did not significantly alter”. The heart rate result in the series on Male Sprague-Dawley rats [3] (setting [6]) was “did not significantly vary”. For the same compound, the cerebral blood flow result in the series on Male Sprague-Dawley rats [4] is “No significant differences”. The solubility in water result in series [5] is “about 2.04 mg/mL”.

On to `CNC(=O)Oc1ccc2c(c1)[C@]1(C)CCN(C)[C@@H]1N2C` [physostigmine], for which the solubility in water entry in series [5] is “about 7.76 mg/mL”.

`CN(C)C(=O)Oc1cccc([N+](C)(C)C)c1` [neostigmine]: the mean arterial pressure entry in the series with Male Sprague-Dawley rats [2] (0.4 mg/kg, at 15 and 30 min postadministration) was “slight decrease in mean arterial pressure”. Further, the heart rate result with Male Sprague-Dawley rats [3] (0.4 mg/kg, over time) is “slight decrease in heart rate”.

Regarding `C/C=C1\[C@H]2C=C(C)C[C@]1(N)c1ccc(=O)[nH]c1C2` [huperzine], the solubility in water result in series [5] is listed as “about 0.188 mg/mL”.

On to `COc1ccc2c3c1O[C@H]1C[C@@H](O)C=C[C@@]31CCN(C)C2` [galantamine], for which, in series [5], the solubility in water result is “about 10 mg/mL”.
